What was measured:
[1] = test system: HuPrime model LU2505 human lung cancer; experiment: In vivo pharmacodynamics, lung cancer LU2505 PDX model; set-up: species or system BALB/c nude mice; details: for Tumor volume (x ± S): in mm³ (unit assumed)
[2] = test system: HuPrime model LI1005 human liver cancer; experiment: In vivo pharmacodynamics, liver cancer LI1005 PDX model; set-up: species or system BALB/c nude mice; details: for Tumor volume (x ± S): in mm³ (unit assumed)
[3] = Plasma stability test, human; format: in vitro ADME; details: 37° C.
Method: (§1) The pH of the plasma was checked and recorded. Note: a.
(§2) The final concentration of solvent was 0.5%.
(§3) The assay was performed in duplicate. […] The tubes were mixed by vortex for 5 minutes.

[4] = Plasma stability test, rat; format: in vitro ADME; details: 5 μM, 37° C.
Method: as §1, §2, §3

[5] = Chiral stability under long-term and accelerated storage conditions; format: physicochemical
Method: Isomer stability under long-term and accelerated conditions was studied.
Compound A and isomers A-P1 and A-P2 were investigated for traits and isomeric stability at −20±5° C., 5° C.±3° C., 25° C.±2° C. (60%±5% RH) and 40° C.±2° C.

[6] = MTD assay and toxicokinetics of Compound A, single 30 min intravenous infusion
[7] = 1.25 mg/kg, QDx5, 2 days off, 2 weeks off, QDx5, i.p., Day 35
[8] = 2.5 mg/kg, QDx5, 2 days off, 2 weeks off, QDx5, i.p., Day 35
[9] = 5 mg/kg, QDx5, 2 days off, 2 weeks off, QDx5, i.p., Day 35
[10] = 10 mg/kg, QWx2, 1 week off, QWx2, i.v., Day 35
[11] = 25° C. ± 2° C./60% ± 5% RH, 6 months
[12] = 40° C. ± 2° C./75% ± 5% RH, 6 months

SMILES: O=[N+]([O-])c1ccc(C(OP(=O)(N2CC2)N2CC2)C(F)(F)F)cc1Oc1ccc(-c2ccc(F)cc2)c(F)c1 (racemic) [Compound A]
- Relative tumor volume (x ± S) ([1]; 1.25 mg/kg i.v. QWx3, Day 28): 4.61 ± 1.57
- T/C (%) ([1]; 1.25 mg/kg i.v. QWx3, Day 28): 43.14%
- TGI (%) ([1]; 1.25 mg/kg i.v. QWx3, Day 28): 56.86%
- Tumor volume (x ± S) ([1]; 1.25 mg/kg i.v. QWx3, Day 28): 485.95 ± 175.25
- Tumor volume ([1]; 1.25 mg/kg i.v., Day 0): 103.28 mm^3
- Tumor volume ([1]; 1.25 mg/kg i.v., Day 4): 156.32 mm^3
- Tumor volume ([1]; 1.25 mg/kg i.v., Day 7): 231.55 mm^3
- Tumor volume ([1]; 1.25 mg/kg i.v., Day 11): 242.12 mm^3
- Tumor volume ([1]; 1.25 mg/kg i.v., Day 14): 291.72 mm^3
- Tumor volume ([1]; 1.25 mg/kg i.v., Day 18): 383.24 mm^3
- Tumor volume ([1]; 1.25 mg/kg i.v., Day 21): 434.92 mm^3
- Tumor volume ([1]; 1.25 mg/kg i.v., Day 25): 478.15 mm^3
- Tumor volume ([1]; 1.25 mg/kg i.v., Day 28): 485.95 mm^3
- Relative tumor volume (x ± S) ([1]; 2.5 mg/kg i.v. QWx3, Day 28): 1.11 ± 0.56
- T/C (%) ([1]; 2.5 mg/kg i.v. QWx3, Day 28): 10.43%
- TGI (%) ([1]; 2.5 mg/kg i.v. QWx3, Day 28): 89.57%
- Tumor volume (x ± S) ([1]; 2.5 mg/kg i.v. QWx3, Day 28): 102.06 ± 47.51
- Tumor volume ([1]; 2.5 mg/kg i.v., Day 0): 103.26 mm^3
- Tumor volume ([1]; 2.5 mg/kg i.v., Day 4): 149.02 mm^3
- Tumor volume ([1]; 2.5 mg/kg i.v., Day 7): 131.34 mm^3
- Tumor volume ([1]; 2.5 mg/kg i.v., Day 11): 109.62 mm^3
- Tumor volume ([1]; 2.5 mg/kg i.v., Day 14): 116.57 mm^3
- Tumor volume ([1]; 2.5 mg/kg i.v., Day 18): 113.09 mm^3
- Tumor volume ([1]; 2.5 mg/kg i.v., Day 21): 103.18 mm^3
- Tumor volume ([1]; 2.5 mg/kg i.v., Day 25): 92.38 mm^3
- Tumor volume ([1]; 2.5 mg/kg i.v., Day 28): 102.06 mm^3
- Relative tumor volume (x ± S) ([1]; 5 mg/kg i.v. QWx3, Day 28): 0.17 ± 0.07
- T/C (%) ([1]; 5 mg/kg i.v. QWx3, Day 28): 1.60%
- TGI (%) ([1]; 5 mg/kg i.v. QWx3, Day 28): 98.40%
- Tumor volume (x ± S) ([1]; 5 mg/kg i.v. QWx3, Day 28): 19.00 ± 8.08
- Tumor volume ([1]; 5 mg/kg i.v., Day 0): 103.23 mm^3
- Tumor volume ([1]; 5 mg/kg i.v., Day 4): 139.41 mm^3
- Tumor volume ([1]; 5 mg/kg i.v., Day 7): 111.31 mm^3
- Tumor volume ([1]; 5 mg/kg i.v., Day 11): 62.41 mm^3
- Tumor volume ([1]; 5 mg/kg i.v., Day 14): 42.40 mm^3
- Tumor volume ([1]; 5 mg/kg i.v., Day 18): 34.32 mm^3
- Tumor volume ([1]; 5 mg/kg i.v., Day 21): 30.63 mm^3
- Tumor volume ([1]; 5 mg/kg i.v., Day 25): 20.52 mm^3
- Tumor volume ([1]; 5 mg/kg i.v., Day 28): 19.00 mm^3
- toxic side effects (body weight change) ([1]; 1.25, 2.5, 5 mg/kg i.v. QWx3): without toxic side effects
- Tumor volume ([2]; 1.25 mg/kg i.p., Day 0): 102.66 mm^3
- Tumor volume ([2]; 1.25 mg/kg i.p., Day 3): 157.94 mm^3
- Tumor volume ([2]; 1.25 mg/kg i.p., Day 7): 198.68 mm^3
- Tumor volume ([2]; 1.25 mg/kg i.p., Day 10): 188.83 mm^3
- Tumor volume ([2]; 1.25 mg/kg i.p., Day 14): 196.25 mm^3
- Tumor volume ([2]; 1.25 mg/kg i.p., Day 17): 204.85 mm^3
- Tumor volume ([2]; 1.25 mg/kg i.p., Day 21): 228.87 mm^3
- Tumor volume ([2]; 1.25 mg/kg i.p., Day 24): 256.49 mm^3
- Tumor volume ([2]; 1.25 mg/kg i.p., Day 28): 246.26 mm^3
- Tumor volume ([2]; 1.25 mg/kg i.p., Day 31): 282.93 mm^3
- Tumor volume ([2]; 1.25 mg/kg i.p., Day 35): 334.61 mm^3
- Relative tumor volume (x ± S) [2, 7]: 3.28 ± 0.53
- T/C (%) [2, 7]: 32.47%
- TGI (%) [2, 7]: 67.53%
- Tumor volume (x ± S) [2, 7]: 334.61 ± 61.24
- Tumor volume ([2]; 2.5 mg/kg i.p., Day 0): 103.02 mm^3
- Tumor volume ([2]; 2.5 mg/kg i.p., Day 3): 156.63 mm^3
- Tumor volume ([2]; 2.5 mg/kg i.p., Day 7): 197.27 mm^3
- Tumor volume ([2]; 2.5 mg/kg i.p., Day 10): 156.39 mm^3
- Tumor volume ([2]; 2.5 mg/kg i.p., Day 14): 147.34 mm^3
- Tumor volume ([2]; 2.5 mg/kg i.p., Day 17): 148.94 mm^3
- Tumor volume ([2]; 2.5 mg/kg i.p., Day 21): 173.92 mm^3
- Tumor volume ([2]; 2.5 mg/kg i.p., Day 24): 180.83 mm^3
- Tumor volume ([2]; 2.5 mg/kg i.p., Day 28): 178.96 mm^3
- Tumor volume ([2]; 2.5 mg/kg i.p., Day 31): 182.98 mm^3
- Tumor volume ([2]; 2.5 mg/kg i.p., Day 35): 178.69 mm^3
- Relative tumor volume (x ± S) [2, 8]: 1.60 ± 0.42
- T/C (%) [2, 8]: 15.88%
- TGI (%) [2, 8]: 84.12%
- Tumor volume (x ± S) [2, 8]: 178.69 ± 65.98
- Tumor volume ([2]; 5 mg/kg i.p., Day 0): 103.15 mm^3
- Tumor volume ([2]; 5 mg/kg i.p., Day 3): 160.80 mm^3
- Tumor volume ([2]; 5 mg/kg i.p., Day 7): 167.82 mm^3
- Tumor volume ([2]; 5 mg/kg i.p., Day 10): 120.93 mm^3
- Tumor volume ([2]; 5 mg/kg i.p., Day 14): 97.35 mm^3
- Tumor volume ([2]; 5 mg/kg i.p., Day 17): 90.25 mm^3
- Tumor volume ([2]; 5 mg/kg i.p., Day 21): 106.81 mm^3
- Tumor volume ([2]; 5 mg/kg i.p., Day 24): 115.29 mm^3
- Tumor volume ([2]; 5 mg/kg i.p., Day 28): 110.01 mm^3
- Tumor volume ([2]; 5 mg/kg i.p., Day 31): 102.22 mm^3
- Tumor volume ([2]; 5 mg/kg i.p., Day 35): 85.00 mm^3
- Relative tumor volume (x ± S) [2, 9]: 0.77 ± 0.18
- T/C (%) [2, 9]: 7.62%
- TGI (%) [2, 9]: 92.38%
- Tumor volume (x ± S) [2, 9]: 85.00 ± 26.32
- Tumor volume ([2]; 10 mg/kg i.v., Day 0): 102.58 mm^3
- Tumor volume ([2]; 10 mg/kg i.v., Day 3): 127.72 mm^3
- Tumor volume ([2]; 10 mg/kg i.v., Day 7): 172.58 mm^3
- Tumor volume ([2]; 10 mg/kg i.v., Day 10): 138.61 mm^3
- Tumor volume ([2]; 10 mg/kg i.v., Day 14): 127.60 mm^3
- Tumor volume ([2]; 10 mg/kg i.v., Day 17): 132.95 mm^3
- Tumor volume ([2]; 10 mg/kg i.v., Day 21): 151.00 mm^3
- Tumor volume ([2]; 10 mg/kg i.v., Day 24): 181.36 mm^3
- Tumor volume ([2]; 10 mg/kg i.v., Day 28): 191.25 mm^3
- Tumor volume ([2]; 10 mg/kg i.v., Day 31): 186.25 mm^3
- Tumor volume ([2]; 10 mg/kg i.v., Day 35): 179.97 mm^3
- Relative tumor volume (x ± S) [2, 10]: 1.87 ± 0.54
- T/C (%) [2, 10]: 18.53%
- TGI (%) [2, 10]: 81.47%
- Tumor volume (x ± S) [2, 10]: 179.97 ± 51.38
- tolerability / body weight ([2]; Compound A 10, 1.25, 2.5, 5 mg/kg, Sorafenib 30 mg/kg): well tolerated
- Percentage remaining after 2 hours in plasma ([3]; Human plasma, 5 μM): 60.06%
- remained in plasma after 2 hours ([3]; human plasma): 60.06%
- Percentage remaining after 2 hours in plasma [4]: 33.03%
- Isomer peak A-P1 ([5]; 0 month): 49.8%
- Isomer peak A-P2 ([5]; 0 month): 50.2%
- Isomer peak A-P1 ([5]; 5° C. ± 3° C., 6 months): 49.9%
- Isomer peak A-P2 ([5]; 5° C. ± 3° C., 6 months): 50.1%
- Isomer transformation ([5]; 5° C. ± 3° C., 6 months): 0.1%
- properties and chirality after storage ([5]; 5° C., 25° C./60% RH, 40° C./75% RH, 6 months): essentially unchanged
- Isomer peak A-P1 [5, 11]: 49.9%
- Isomer peak A-P2 [5, 11]: 50.1%
- Isomer transformation [5, 11]: 0.1%
- Isomer peak A-P1 [5, 12]: 49.9%
- Isomer peak A-P2 [5, 12]: 50.1%
- Isomer transformation [5, 12]: 0.1%
- exposure ([6]; 1, 3, 6 mg/kg): dose proportional
- survival ([6]; 1, 3, 6 mg/kg, until planned dissection): all animals survived
- MTD at 14 days ([6]; both, monkey (machins), in vivo, iv): > 6 mg/kg
- clearance ([6]; both, monkey (machins), plasma, iv): 22.3 to 45.3 mL/min/kg
- clinical observation ([6]; females, 3 mg/kg and 6 mg/kg): slight erythema at the site of the administration
- clinical observation ([6]; males and females, 6 mg/kg): Soft stools

Source: patent US20260159536A1, “AKR1C3-ACTIVATED DNA ALKYLATING AGENT, AND MEDICAL APPLICATION THEREOF” (ASCENTAWITS PHARMACEUTICALS, LTD., priority 2021, published 2026)
